Patent publication US20230416299A1, “COMPOUND AND METHOD FOR THE TREATMENT AND DIAGNOSIS OF NEURODEGENERATIVE CONDITIONS” (Swansea University, priority 2013, published 2023)

What was measured:
[1] = system: Abca1, Abcg1 and Srebf1 transcript levels; assay: Quantitative PCR of Lxr target genes in SN4741 cells; format: cell-based, mouse; conditions: SN4741 cells treated 3 h
Experimental: (§1) Quantitative PCR. Total RNA was extracted from SN4741 cells and zebrafish treated with the compounds of interest using the RNeasy Mini Kit (Qiagen), 1 μg was treated with RQ1 RNase-free DNase (Promega) and reverse transcribed using Superscript II Reverse Transcriptase (Invitrogen) and random primers (Invitrogen) (RT+ reaction). Parallel reactions without reverse transcriptase enzyme were done as a control (RT− reaction), and Sybergreen real-time quantitative PCR assays were performed. Expression levels were obtained by normalization with the value of the housekeeping gene encoding actin obtained for every sample in parallel assays.

[2] = system: Islet-1:GFP transgenic zebrafish embryos; format: in vivo
Experimental: as §1
Zebrafish Strain and Mainrenance Zebrafish were raised on a 14/10 h day/night cycle and were kept at 28.5° C. Islet-1:GFP transgenic embryos were obtained via natural spawning and staged in hours or days post fertilization (hpf and dpf) according to Kimmel et al). Embryos older than 24 hpf were treated with 0.03% phenylthiourea (PTU) to inhibit pigmentation. MO injections were performed using splice site specific zebrafish 1xr MO. MO injected embryos were immediately dechorionated and transferred to a 96 well plate and exposed to dimethyl sulfoxide (DMSO) treated or ligand treated medium.
Compound Exposure. Islet-1:GFP embryos were collected by natural mating and immediately (at 1 cell stage) dechorionated and transferred to a 96 well plate. Each of the compounds tested were obtained as 10 mM stock and diluted in embryo medium to a final concentration of 10 μM, and 200 μL was added to each well. DMSO or propan-2-ol treated embryo medium was taken as control. Ligand solutions were replaced every 12 h with fresh ligand solution prepared in PTU treated embryo medium. Embryos were collected at 48 hpf, fixed for 4 h at room temperature with 4% paraformaldehyde and then washed and kept in PBST. Immunocytochemistry was performed using an anti-GFP antibody and fluorescence was viewed and photographed using a Zeiss Axioplan compound microscope and a Zeiss Axiocam digital camera.

[3] = system: mouse E11.5 brain primary cultures; assay: Mouse E11.5 brain primary cultures (Islet1+, active caspase 3+, BrdU, Nkx6.1 counts); format: cell-based; conditions: for Number of Islet1+ cells: 3 DIV; for Number of active caspase-3+ cells: 10 μM 3β,7α-diHCA, 3βH,7O-CA, 25-HC, low concentrations of 3β,7β-diHCA, 3β-HCA
Experimental: Primary Brain Cultures. Brains from E11.5 mice were manually dissected, plated on poly-D-lysine (150,000 cells/cm2) and grown in serum-free N2 media consisting of 1:1 mixture of F12 and DMEM with 10 ng/mL insulin, 100 μg/mL apo-transferrin, 100 μM putrescine, 20 nM progesterone, 30 nM selenium, 6 mg/mL glucose, and 1 mg/mL BSA. Cells were treated for 3 days in vitro (DIV) with the compounds of interest, fixed with 4% PFA and processed for staining using appropriate antibodies.
For BrdU analysis, cells were treated with BrdU one hour after plating and media was replaced with fresh medium after 16 h. After a further 2 days in culture, cells were treated for 30 min with 2N HCl and then immunocytochemistry was performed to evaluate the number of double BrdU+;Islet1+ cells (a measure of motor neuron neurogenesis). Hoechst staining was performed by permeabilizing cells with a 0.3% Triton-X 100/PBS solution for 5 min followed by incubation with Hoechst 33258 (Sigma) for 10 min.
Antibodies and Detection Procedures. Cells were fixed in 4% PFA, washed in PBS and blocked in 5% normal goat serum/PBS for 1 h at room temperature. Primary antibodies were diluted in PBS (pH 7.4), 0.3% Triton X-100, 1% BSA and incubations were carried out overnight at +4° C. or at room temperature for 2 h. The antibodies used were anti-: BrdU (1:400; Abeam), Islet-1 (1:100; Developmental Studies Hybridoma Bank), cleaved caspase-3 (Asp175) (1:100; Cell Signaling Technology), tyrosine hydroxylase (TH;1:1000; Pel-Freeze) GABA (1:1,000; Sigma), Brn3a (1:250; Millipore), Nkx6.1 (1:200; Novus Biologicals), choline acetyltransferase (ChAT; 1:500; Millipore) and appropriate secondary antibodies (Jackson ImmunoResearch or Alexa). Cells positive for the corresponding marker were counted directly at the microscope at a magnification of 20 x. Cells were counted in every well, in eight consecutive fields (going from one side of the well to the other, passing through the center), in three different wells per experiment and in three different experiments per condition. Random pictures of the wells were taken for every condition to document the result, and representative pictures were subsequently selected to represent the quantitative data. Photos were acquired with a Zeiss Axioplan microscope and a Hamamatsu camera C4742-95 using the Openlab software.

| SMILES | Abca1, Abcg1 and Srebf1 transcript levels [1] | Islet-1 mRNA and protein level (qPCR, western blot) ([2]; 10 μM) | abca1 mRNA expression in vivo ([2]; 10 μM) | Islet-GFP expression in cranial nerves ([2]; 10 μM, 48 hpf) | Number of Islet1+ cells in cranial nerves (III, IV, V, VII, X) ([2]; 10 μM, 48 hpf) | Islet-GFP levels after lxr morpholino (MO) injection ([2]; 10 μM, lxr MO vs control scrambled MO) | Number of Nkx6.1+ progenitor cells [3] | Number of other midbrain neurons (TH+ dopamine, GABAergic, red nucleus) [3] | Reduction of neuronal cell death (activated caspase 3) induced by 2 μM 3β,7β-diHCA or 3β-HCA ([3]; 10 μM) | Rescue of loss of Islet1+ cells induced by 2 μM 3β,7β-diHCA or 3β-HCA ([3]; 10 μM) | Effect on active caspase-3+ cells with GGPP ([3]; GGPP 10 μM, 3β,7β-diHCA, 3β-HCA at 2 μM) | Number of Islet1+ cells ([3]; wild type cultures) | Concentration with significant difference (p<0.05) from vehicle in number of Islet1+ cells ([3]; wild type cultures, dose response) [µM] | Effect on Islet1+ cells with Lxr antagonist GGPP ([3]; wt cultures, GGPP 10 μM) | Number of active caspase-3+ cells ([3]; wt cultures) | Toxicity to zebrafish embryos ([2]; 10 μM in medium) | Concentration at which toxicity is initiated (active caspase-3+ cells) ([3]; mouse, E11.5 mouse brain primary cultures, 3 days) [µM] |
| --- | --- | --- | --- | --- | --- | --- | --- | --- | --- | --- | --- | --- | --- | --- | --- | --- | --- |
| CC(CCC[C@@H](C)[C@H]1CC[C@H]2[C@@H]3[C@H](O)C=C4C[C@@H](O)CC[C@]4(C)[C@H]3CC[C@]12C)C(=O)O (stereo partly drawn) [3β,7α-diHCA, 3β,7α-dihydroxycholest-5-en-26-oic acid] | increased transcripts levels to a similar degree as 22R-HC | increase in the level of Islet-1 mRNA and protein | enhanced expression of abca1 | increased Islet-GFP expression | no significant effect on the number of Islet1+ cells | abolished the in vivo increase in Islet-GFP levels | did not affect the number of Nkx6.1+ progenitor cells | did not affect the number of other midbrain neurons | reduced the neuronal cell death | reversed the loss of Islet 1+ cells | completely blocked by co-incubation with the Lxr inhibitor GGPP | increased the number of Islet1+ oculomotor cells in the cultures | ≥ 5 | blocked by the Lxr antagonist GGPP | decreased the number of active caspase-3+ cells |  |  |
| CC(CCC[C@@H](C)[C@H]1CC[C@H]2[C@@H]3CC=C4C[C@@H](O)CC[C@]4(C)[C@H]3CC[C@]12C)C(=O)O (stereo partly drawn) [3β-HCA, 3β-hydroxycholest-5-en-26-oic acid] | induced transcription, but to a lesser extent |  |  |  |  |  | did not affect the number of Nkx6.1+ progenitor cells |  |  |  |  | caused the loss of Islet1+ cells in the cultures |  |  | increased the number of active caspase-3+ cells | deleterious toxic effect which impaired the survival of the fish | 1 |
